# Data from article PMC7809260 (Scientific Reports, 2021).
# Structures can show the parent of a compound that is named as a salt. Where two headings read alike, the source gives them in different places.
# What was measured:
# JumpIn-DAT cells [1] = experiment: Effect of pretreatment alone on impedance, dox-treated JumpIn-DAT cells (xCELLigence); format: cell-based, human; conditions: 10 µM, 1 h
# [2] = target: human dopamine transporter (DAT) (Homo sapiens, UniProt Q01959); experiment: TRACT assay, DAT inhibition in JumpIn-DAT cells (+dox); conditions: dox-treated JumpIn-DAT cells, 10 µM inhibitor compared to vehicle-pretreated cells
# JumpIn-DAT cells [3] = experiment: cells; conditions: Homo sapiens
# DAT [4] = conditions: cited from earlier work
# DAT [5] = conditions: cited from earlier work; remark: listed apart in the source
# U2OS-DAT cells [6] = experiment: Effect of pretreatment alone on impedance, U2OS-DAT cells (xCELLigence); format: cell-based, human; conditions: 10 µM, 1 h incubation
# U2OS-DAT cells [7] = experiment: GPCR antagonist experiment, dopamine-induced cell response in U2OS-DAT cells (xCELLigence); format: cell-based, human; conditions: 1 µM antagonist 1 h, then 10 µM dopamine
# Protocol: Impedance was measured overnight every 15 min.
# [8] = system: non-transfected U2OS cells; experiment: GPCR antagonist experiment, dopamine-induced response in non-transfected U2OS cells (xCELLigence); format: cell-based, human; conditions: 1 µM antagonist 1 h, then 316 nM dopamine
# Protocol: Figure S1. Representative vehicle-corrected xCELLigence traces of GPCR antagonists in three cell lines. (a) Pretreatment of U2OS-DAT cells with 1 µM antagonist for 1 h. (b) […]
# vehicle, 1 µM SCH23390 or raclopride for 1 h. ( c) Pretreatment of JumpIn-DAT cells in the (1 picture or pasted object on this page, not shown here)
# JumpIn-DAT cells [9] = experiment: GPCR antagonist experiment, dopamine response in dox-treated JumpIn-DAT cells (xCELLigence); format: cell-based, human; conditions: 1 µM antagonist 1 h, then 31.6 µM dopamine
# DAT [10] = target: T1, DAT (Homo sapiens, UniProt Q01959); experiment: [3H]WIN35,428 saturation binding assay
# T1 construct: host or cells: U2OS, transient PEI transfection of pcDNA3.1(+)-DAT; whole cells or membranes
# T1 sequence (Q01959 whole entry): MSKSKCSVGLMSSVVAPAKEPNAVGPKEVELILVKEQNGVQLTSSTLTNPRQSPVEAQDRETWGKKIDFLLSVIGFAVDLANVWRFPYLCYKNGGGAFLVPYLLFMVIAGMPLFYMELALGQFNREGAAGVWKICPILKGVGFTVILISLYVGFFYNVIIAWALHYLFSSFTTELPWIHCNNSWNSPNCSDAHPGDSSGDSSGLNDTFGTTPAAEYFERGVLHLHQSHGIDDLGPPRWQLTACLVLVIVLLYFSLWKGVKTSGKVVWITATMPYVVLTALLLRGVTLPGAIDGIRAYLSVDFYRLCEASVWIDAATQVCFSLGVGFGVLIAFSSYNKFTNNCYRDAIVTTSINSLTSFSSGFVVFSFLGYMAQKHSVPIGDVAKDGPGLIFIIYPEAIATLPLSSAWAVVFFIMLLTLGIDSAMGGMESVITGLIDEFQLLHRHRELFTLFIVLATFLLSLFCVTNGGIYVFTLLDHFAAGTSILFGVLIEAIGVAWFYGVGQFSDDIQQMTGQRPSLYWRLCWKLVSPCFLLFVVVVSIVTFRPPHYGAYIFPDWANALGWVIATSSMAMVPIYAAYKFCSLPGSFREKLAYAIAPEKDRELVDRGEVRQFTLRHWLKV
# Chain of human dopamine transporter (DAT) (Q01959 whole entry): as above
smiles,measurement,setting,value
"COC(=O)[C@H]1[C@@H](OC(=O)c2ccccc2)C[C@@H]2CC[C@H]1N2C.Cl [Cocaine, Cocaine hydrochloride]",effect of pretreatment on its own on impedance,JumpIn-DAT cells [1],did not substantially affect impedance over time
same,enhancement of the apparent potency of dopamine by DAT inhibitor,[2],threefold
"NCCc1ccc(O)c(O)c1 [Dopamine, dopamine hydrochloride]",EC50,"JumpIn-DAT cells [3]; 0.5 h, read-out: pEC50 ± SEM (apparent potency of dopamine), JumpIn-DAT –dox (converted), fixed pseudo-Hill slope of 1, net AUC first 30 min",7.94 µM
same,EC50,"JumpIn-DAT cells [3]; read-out: EC50 in µM, JumpIn-DAT +dox pretreated 1 h with 10 µM GBR12909, fixed pseudo-Hill slope of 1",26 µM
same,EC50,"JumpIn-DAT cells [3]; read-out: EC50 in µM, JumpIn-DAT +dox pretreated 1 h with 10 µM cocaine, fixed pseudo-Hill slope of 1",13 µM
same,EC50,"JumpIn-DAT cells [3]; read-out: EC50 in µM, JumpIn-DAT –dox, fixed pseudo-Hill slope of 1",8 µM
same,EC50,"JumpIn-DAT cells [3]; read-out: pEC50 ± SEM (apparent potency of dopamine), JumpIn-DAT +dox (1 µg/ml), vehicle-pretreated (converted), fixed pseudo-Hill slope of 1",50.1 µM
same,EC50,"JumpIn-DAT cells [3]; read-out: pEC50 ± SEM (apparent potency of dopamine), JumpIn-DAT +dox pretreated 1 h with 10 µM GBR12909 (converted), fixed pseudo-Hill slope of 1",25.1 µM
same,EC50,"JumpIn-DAT cells [3]; read-out: pEC50 ± SEM (apparent potency of dopamine), JumpIn-DAT +dox pretreated 1 h with 10 µM cocaine (converted), fixed pseudo-Hill slope of 1",12.6 µM
same,EC50,"JumpIn-DAT cells [3]; read-out: pEC50 ± SEM (variable slope), JumpIn-DAT +dox (converted), variable slope model",31.6 µM
same,EC50,"JumpIn-DAT cells [3]; read-out: pEC50 ± SEM (variable slope), JumpIn-DAT +dox + 10 µM GBR12909 (converted), variable slope model",31.6 µM
same,EC50,"JumpIn-DAT cells [3]; read-out: pEC50 ± SEM (variable slope), JumpIn-DAT +dox + 10 µM cocaine (converted), variable slope model",20 µM
"Cl.Cl.Fc1ccc(C(OCCN2CCN(CCCc3ccccc3)CC2)c2ccc(F)cc2)cc1 [GBR12909, GBR12909 dihydrochloride]",affinity for DAT,DAT [4],low nanomolar
same,"pIC50, MPP+-induced toxicity inhibition",DAT [5],7.0
same,effect of pretreatment on its own on impedance,JumpIn-DAT cells [1],did not substantially affect impedance over time
same,effect of pretreatment itself on impedance,U2OS-DAT cells [6],did not substantially affect impedance
same,enhancement of the apparent potency of dopamine by DAT inhibitor,[2],twofold
"CN1CCc2cc(Cl)c(O)cc2[C@@H](c2ccccc2)C1 [SCH23390, SCH23390 hydrochloride]",effect on dopamine-induced cell response,U2OS-DAT cells [7],completely abolish
same,effect on dopamine-induced response,[8],eliminated the dopamine-induced response
same,effect on dopamine response,JumpIn-DAT cells [9],not affected
"[3H]CN1[C@H]2CC[C@@H]1[C@@H](C(=O)OC)[C@@H](c1ccc(F)cc1)C2 [[^3H]WIN35,428, [^3H]-2β-carbomethoxy-3β-(4-fluorophenyl)-tropane]",Bmax (total amount of binding sites),DAT [10]; U2OS-DAT membranes,1.6 ± 0.2 pmol/mg protein
same,specific binding,DAT [10]; U2OS-mock membranes,No specific binding
CCN1CCC[C@H]1CNC(=O)c1c(O)c(Cl)cc(Cl)c1OC [raclopride],effect on dopamine-induced response,[8],not
"COC(=O)[C@@H]1[C@H]2C[C@H]3c4[nH]c5ccccc5c4CCN3C[C@@H]2CC[C@@H]1O [yohimbine, Yohimbine hydrochloride]",effect on dopamine response,JumpIn-DAT cells [9],significantly reduced
